How the values were obtained:
[1] = system: adult patients with type 2 diabetes mellitus with albuminuria; test: Phase 2 study: serum cholesterol; type: in vivo, human; conditions: for Serum Cholesterol: Between PRL and PBO Group LS Mean Change from Baseline at week 12 / Serum Cholesterol: Within Group LS Mean Change from Baseline at Week 12: ITT; for Cholesterol: Placebo-Adjusted LS Mean Change from Baseline at Week 12 / Cholesterol: Within Group LS Mean Change from Baseline at Week 12: mITT Population
Excerpt: Other secondary objectives of this clinical study included the evaluation of the pharmacokinetic (PK) concentrations of oral IW-1973 and the exploration of the effect of oral IW-1973 on hemodynamics and metabolic effects when administered daily for approximately 12 weeks to adult patients with type 2 diabetes mellitus with albuminuria (i.e., DN patients) who were on a stable regimen of renin-angiotensin system inhibitors (RAAS inhibitors, i.e., ACEi's and ARBs).
Clinical laboratory assessments obtained during the performance of this clinical trial included: complete blood count, serum chemistry panel, urinalysis, coagulation panel, estimated glomerular filtration rate (eGFR; determined by the Chronic Kidney Disease Epidemiology Collaboration [CKD-EPI] creatinine equation), hemoglobin A1c (HbA1C), Homeostatic Model Assessment to estimate insulin resistance (HOMA-IR), platelet function assessment (using VerifyNow®, at a subset of sites), urine pregnancy, and screens for hepatitis, human immunodeficiency virus, and drugs of abuse.
(§1) This multicenter, randomized, double-blind, placebo-controlled, parallel-group study evaluated 2 dose levels of IW-1973 compared with placebo. The study population consisted of adult patients with type 2 diabetes mellitus, albuminuria, and impaired renal function. Patients had to have been taking antihyperglycemic medications for at least 12 weeks with their regimen being stable (ie, drug and dose) for at least 28 days before the Randomization Visit. Additionally, patients had to have been on a stable regimen of angiotensin-converting enzyme inhibitor (ACEi) or an angiotensin receptor blocker (ARB), for at least 28 days before the Randomization Visit. For more details, see Inclusion Criteria below. A total of 156 patients (approximately 50 patients per arm) were stratified by baseline estimated glomerular filtration rate (eGFR) into three groups: eGFR 30 to 45, >45 to 60, and >60 to 75 mL/min/1.73 m^2) and randomized approximately 1:1:1 to total daily 20 mg IW-1973, 40 mg IW-1973, or placebo.

[2] = system: adult patients with type 2 diabetes mellitus with albuminuria; test: Phase 2 study: 24-hour ambulatory blood pressure monitoring (ABPM); type: in vivo, human; conditions: ITT, 24-Hour ABPM
Experimental: Hemodynamic and vital signs that were measure included seated and standing BP (systolic and diastolic) and pulse measurements by automated office blood pressure (AOBP), ambulatory BP (systolic and diastolic) and pulse monitoring, respiratory rate, oral temperature. Orthostatic (standing minus seated) measurements were calculated for BPs and pulse.
as §1
Screening Period: The Screening Period began with the signature of the informed consent form (ICF) at the Screening Visit and lasted up to 45 days. At the Screening Visit (which could occur from Day −45 to Day −15), patients underwent preliminary screening procedures to determine their eligibility. Eligible patients returned to the clinic for the Baseline Visit ([…]) for baseline and eligibility assessments including 24-hour ambulatory blood pressure monitoring (ABPM). The end of the Screening Period coincided with the beginning of the Treatment Period.
Dosing on Days 1 to 7 (±1) was BID (twice daily), morning and evening; dosing on Day 8 (±1) and onward was QD (once daily), 2 tablets in the morning. At the Randomization Visit on Day 1, patients received their morning dose of study drug in the clinic and underwent safety, efficacy, and pharmacokinetic (PK) assessments, including blood and urine collections at prespecified times. Patients stayed in the clinic at least 6 hours postdose and were able to leave the clinic at the Investigator's discretion following all study procedures. At the Week 1 Visit on Day 8 (±1), patients returned to the clinic and received their first QD dose of study drug in the clinic. Patients underwent safety, efficacy, and PK assessments, including blood and urine collections at prespecified times. Patients stayed in the clinic at least 6 hours postdose and were able to leave the clinic at the Investigator's discretion following all study procedures. At the Week 4 (Day 29±3), Week 8 (Day 57±3), and End of Treatment (Day 87±3) Visits, patients returned to the clinic for study drug administration; safety, efficacy, and PK assessments; and study drug supply, if applicable.

## OC(CNc1nc(-c2cc(-c3ccon3)n(Cc3ccccc3F)n2)ncc1F)(C(F)(F)F)C(F)(F)F [Compound I, praliciguat]
[1]; PRL 20 mg
  Serum Cholesterol: Between PRL and PBO Group LS Mean Change from Baseline at week 12: -12.1 mg/dL
  Serum Cholesterol: Within Group LS Mean Change from Baseline at Week 12: -7.8 mg/dL
  Cholesterol: Placebo-Adjusted LS Mean Change from Baseline at Week 12: -13.1 mg/dL
  Cholesterol: Within Group LS Mean Change from Baseline at Week 12: -10.6 mg/dL
[1]; PRL 40 mg
  Serum Cholesterol: Between PRL and PBO Group LS Mean Change from Baseline at week 12: -8.1 mg/dL
  Serum Cholesterol: Within Group LS Mean Change from Baseline at Week 12: -3.7 mg/dL
  Cholesterol: Placebo-Adjusted LS Mean Change from Baseline at Week 12: -7.5 mg/dL
  Cholesterol: Within Group LS Mean Change from Baseline at Week 12: -4.8 mg/dL
[1]; PRL Combined
  Serum Cholesterol: Between PRL and PBO Group LS Mean Change from Baseline at week 12: -10.1 mg/dL
  Serum Cholesterol: Within Group LS Mean Change from Baseline at Week 12: -5.8 mg/dL
  Cholesterol: Placebo-Adjusted LS Mean Change from Baseline at Week 12: -10.2 mg/dL
  Cholesterol: Within Group LS Mean Change from Baseline at Week 12: -7.7 mg/dL
[2]; PRL 20 mg
  Between PRL and PBO Group LS Mean Change 24-hour MAP from Baseline at week 12: −3.96 mmHg
  Between PRL and PBO Group LS Mean Change 24-hour SBP from Baseline at week 12: −4.06 mmHg
  Within Group LS Mean Change from Baseline 24-hour MAP at Week 12: −3.62 mmHg
  Within Group LS Mean Change from Baseline 24-hour SBP at Week 12: −4.18 mmHg
[2]; PRL 40 mg
  Between PRL and PBO Group LS Mean Change 24-hour MAP from Baseline at week 12: −3.58 mmHg
  Between PRL and PBO Group LS Mean Change 24-hour SBP from Baseline at week 12: −4.29 mmHg
  Within Group LS Mean Change from Baseline 24-hour MAP at Week 12: −3.23 mmHg
  Within Group LS Mean Change from Baseline 24-hour SBP at Week 12: −4.41 mmHg
[2]; PRL Combined
  Between PRL and PBO Group LS Mean Change 24-hour MAP from Baseline at week 12: −3.77 mmHg
  Between PRL and PBO Group LS Mean Change 24-hour SBP from Baseline at week 12: −4.17 mmHg
  Within Group LS Mean Change from Baseline 24-hour MAP at Week 12: −3.43 mmHg
  Within Group LS Mean Change from Baseline 24-hour SBP at Week 12: −4.30 mmHg

Source: patent publication US20240165114A1, “TREATMENT OF DIABETIC NEPHROPATHY WITH AN sGC STIMULATOR” (Cyclerion Therapeutics, Inc., priority 2019, published 2024)
